How the values were obtained:
[1] = tested on: APP/PS1 mice; experiment: Novel place recognition test, APP/PS1 mice; type: in vivo, mouse
Experimental: For an animal model of AD, both sexes of 10- to 18-month-old APP/PS1 mice were maintained and used as previously described.[76],[77] To test the effects of novel H2O2-decomposing enhancers in the AD model, the mice were treated by i.p. injection with KDS12008 (3 mg/kg/day), KDS12017 (3 mg/kg/day), or KDS12025 (3 or 10 mg/kg/day) once per day for 1 or 2 weeks, depending on the experimental protocol. All drugs were dissolved in 200 μl of saline, and the amount of each drug was calculated on the basis of the weight (kg) of the mouse. Moreover, KDS12025 (3 mg/kg/day) was orally administered to the AD model for 2 weeks ad libitum.
Before the novel place recognition (NPR) test, the mice were subjected to sufficient handling and were concurrently habituated to an open field test (OFT) in a square chamber (40 × 40 × 40 cm). After habituation, the mice were placed in the open field with two identical objects positioned in the first and second quadrants of the cage. The mice were allowed to explore the objects freely for 10 min and then returned to their home cages for 1 h. To test spatial recognition memory, one of the two identical objects was placed in a novel place (quadrant), and the mice were re-entered into the open field chamber for 10 min. The discrimination index (DI) was calculated as the percentage of time spent on the novel place over the total time spent on both the novel and the familiar place. Frequencies were quantified via EthoVision XT software (Noldus, Netherlands).
The mice were deeply anesthetized with vaporized 1% isoflurane and placed into stereotaxic frames (RWD Life Science, China). Following an incision on the midline of the scalp, a hole was drilled into the skull above the hippocampus. AAV-GFAP104-GFP or AAV-GFAP104-DTR-GFP was bilaterally microinjected into the hippocampal CA1 region (AP, −2.0 mm; ML, ±1.5 mm; DV, −1.65 mm from the bregma). Diphtheria toxin (2 mg/ml) was administered for 16 days as previously described.[77] For shRNA knockdown, AAV-pSicoR-Hbβ-shRNA-mCherry or AAV-pSicoR-Sc-shRNA-mCherry was microinjected into the same coordinate system. A total of 0.8 µl of the virus was injected via a syringe pump (KD Scientific, USA). The injection procedures were implemented before 5 weeks of the experiments. For cell type-specific knockdown, AAV-pSico-Hbβ-shRNA-GFP or AAV-pSico-Sc-shRNA-GFP was combined with either AAV-CaMKII-Cre-mCherry for neuronal targeting or AAV-GFAP-Cre-mCherry for astrocyte targeting. The viruses were bilaterally injected into the hippocampus and substantia nigra via the same stereotaxic coordinates and injection procedures. All viruses used in this study were produced at the Institute for Basic Science virus facility (IBS virus facility, Korea). To investigate the effects of 0.1 mg/kg/day KDS12025, GiD mice were injected with diphtheria toxin (2 mg/ml) daily for 16 days. Concurrently, KDS12025 was administered ad libitum (0.1 mg/kg/day) during the same period.

[2] = tested on: primary cultured hippocampal astrocytes; experiment: oROS-G intracellular H2O2 imaging; type: cell-based, mouse; settings: for oROS-G intensity: Fig. 6e
Experimental: Primary hippocampal astrocytes were obtained from postnatal day 0‒2 (P0‒2) C57BL/6 mice as previously described.[73] The hippocampal tissue was dissected free of meninges, minced, and dissociated into a single-cell suspension by trituration. The cells were grown in Dulbecco’s modified Eagle’s medium supplemented with D-glucose (4500 mg/L), L-glutamine, sodium pyruvate (110 mg/L), 10% heat-inactivated horse serum, 10% heat-inactivated fetal bovine serum, and 1000 U/ml penicillin‒streptomycin. The cells were maintained at 37 °C in a humidified atmosphere containing 5% CO2.
H2O2 specific, highly sensitive, and fast on-and-off kinetics, a genetically encoded oROS-G plasmid kindly provided by Dr. Andre Berndt. oROS-G was cloned under the GFAP104 promoter and delivered into primary cultured hippocampal astrocytes via the NeoN^TM transfection system (Invitrogen). The cells were treated with various concentrations of Aβ (1 to 10 μM) or 6-OHDA (Tocris, 2547; 10 to 50 μM) to induce aberrant H2O2. For subsequent experiments, 5 μM Aβ and 30 μM 6-OHDA were selected on the basis of initial dose‒response studies. KDS12025 (10 μM) and sodium pyruvate (1 mM) were applied as indicated in each experiment. For live-cell imaging, astrocytes were maintained in a humidified chamber at 37 °C with 5% […] during imaging to preserve physiological conditions. Changes in the fluorescence of oROS-G were recorded via an A1 Nikon confocal microscope equipped with a temperature- and humidity-controlled stage. Images were captured every 20 min for up to 40 h (20for the 6-OHDA experiments) via the NIS-Elements software (Nikon, Japan) for time-lapse imaging. The excitation and emission wavelengths for oROS-G fluorescence were set to 485 nm and 538 nm, respectively. Endpoint fluorescence measurements were also collected for KDS12025 dose-dependent experiments. To analyze the fluorescence intensity, individual regions of interest (ROIs) were manually selected for each astrocyte via NIS-Elements software (Nikon, Japan). The fluorescence intensity changes were normalized to the baseline values (ΔF/F0) to quantify the H2O2 dynamics. To determine the EC50 of KDS12025, endpoint fluorescence intensity data from oROS-G experiments were normalized to those of the Aβ+vehicle control group. The normalized data were analyzed via GraphPad Prism software to fit a four-parameter logistic curve, yielding the EC50 value for the H2O2-decomposing activity of KDS12025.

For `CNc1ccc(NCCc2ccccc2OC)cc1.Cl` [KDS12025, N^1-(2-methoxyphenethyl)-N^4-methylbenzene-1,4-diamine hydrochloride salt], the NPR discrimination index ([1]; APP+KDS12025 3 mg/kg/day ad libitum, Fig. 5n) was “WT (0.2560±0.07604, n=6), APP (-0.0956±0.05233, n=5), APP+KDS12025 (ad libitum) (0.2057±0.04843, n=6) One-way ANOVA with Tukey's multiple comparisons test, F(2,14) = 8.997, p = 0.003 WT vs. APP, p = 0.004; WT vs. APP+KDS12025 (ad libitum), p = 0.82; APP vs. APP+KDS12025 (ad libitum), p = 0.01”, the NPR discrimination index ([1]; APP+ScRNA+KDS12025, Fig. 6g) was 0.46±0.09 and the NPR discrimination index ([1]; APP+shHbβ+KDS12025, Fig. 6g) was -0.06±0.082. The NPR discrimination index ([1]; APP+shHbβ::CaMKII+KDS12025, Fig. 6l) was 0.24±0.08, the NPR discrimination index ([1]; APP+shHbβ::GFAP+KDS12025, Fig. 6l) was -0.04±0.059 and the “oROS-G H2O2 level” value ([2]; 6-OHDA 30 μM + KDS12025, Fig. 3k) was 123.4±9.7. For the same molecule, the “oROS-G H2O2 level, 40-h imaging” value ([2]; Aβ 5 μM + KDS12025 10 μM, Fig. 3h) was 111.8±4.968, the oROS-G intensity ([2]; Hbβ-shRNA, Aβ 5 μM + 0.1μM) was 199.3 and the oROS-G intensity ([2]; Hbβ-shRNA, Aβ 5 μM + 1μM) was 204.7. The oROS-G intensity ([2]; Hbβ-shRNA, Aβ 5 μM + 10μM) was 182.4, the EC50 ([2]; Mus musculus, Astrocyte, Aβ 5 µM-treated astrocytes, oROS-G endpoint, read-out: EC50, reduction of Aβ-induced H2O2) was 500 nM and the oROS-G intensity ([2]; Sc-shRNA, Aβ 5 μM + 0.1μM) was 100.5±13.5. For the same molecule, the oROS-G intensity ([2]; Sc-shRNA, Aβ 5 μM + 1μM) was 112.3±24.1, the oROS-G intensity ([2]; Sc-shRNA, Aβ 5 μM + 10μM) was 83.4±13.5 and the “oROS-G H2O2 level, 40-h imaging” value ([2]; putrescine 180 μM + KDS12025 10 μM, Fig. 3i) was 96.12±6.634.

— PMC12373846, “Hemoglobin as a pseudoperoxidase and drug target for oxidative stress-related diseases” (Signal Transduction and Targeted Therapy, 2025)
